Assay results reported in US4112097A, “Antihypertensive agents” (Abbott Laboratories, priority 1977, dated 1978).
Structures can show the parent of a compound that is named as a salt. Where two headings read alike, the source gives them in different places.

Assays:
physchem = settings: water
Method: The water in the filtrate was removed in vacuo and the residue weighed and found to be 16.7 mg.

[1] = Acute intravenous toxicity in mice; format: in vivo, mouse; settings: mouse, in vivo, iv, mice male and female, read-out: LD50 (95% Confidence Limits)
mice (male and female) = assay: Acute intravenous toxicity in mice; format: in vivo, mouse; settings: mice, administered within twenty minutes following preparation
[2] = system: spontaneously hypertensive (SH) rats; assay: Antihypertensive effect (blood pressure and heart rate) in spontaneously hypertensive rats; format: in vivo, rat; settings: for Percent Change BP (blood pressure) / Percent Change HR (heart rate): N=4, mean
Method: The screening is conducted as follows:
Male spontaneously hypertensive (SH) rats are trained to be restrained in a wire mesh cylinder in a warming box, at least two training cycles being conducted before testing. The rats are warmed for about 1/2 hour period to blood pressure measurement, the warming box being maintained at a constant temperature of 36° C.
An occluding cuff attached to the programed sphymomanometer is placed near the base of the tail of each rat and the pressure in the cuff is increased automatically from 0 to 250 milimeters of mercury (mm Hg) at a rate of 10 mm Hg per second. The total time for each cycle of inflation and deflation of the cuff is 50 seconds and the interval between cycles is one minute.
A photocell is placed distal to the cuff to record the pulses due to forward motion of blood flow with each heart beat. As the pressure in the cuff increases, the pulse disappears completely at a point where cuff pressure equals or exceeds the arterial blood pressure and it reappears during deflation at approximately the same pressure. Five interference free signals for deflation are recorded for each rat. Rats with a blood pressure of 180 mm Hg or more during the control period are used in the study. Blood pressure and heart rate readings are recorded on a model VII Grass polygraph at intervals of 1, 3, 5 and 24 hours after administration of the drug.

[3] = cited from earlier work
[4] = background statement on prazosin; cited from earlier work
[5] = intraperitoneal 0.3 mg/kg, 1 hour
[6] = intraperitoneal 0.3 mg/kg, 3 hours
[7] = intraperitoneal 0.3 mg/kg, 5 hours
[8] = intraperitoneal 0.3 mg/kg, 24 hours
[9] = intraperitoneal 1 mg/kg, 1 hour
[10] = intraperitoneal 1 mg/kg, 3 hours
[11] = intraperitoneal 1 mg/kg, 5 hours
[12] = intraperitoneal 1 mg/kg, 24 hours
[13] = intraperitoneal 3 mg/kg, 1 hour
[14] = intraperitoneal 3 mg/kg, 3 hours
[15] = intraperitoneal 3 mg/kg, 5 hours
[16] = intraperitoneal 3 mg/kg, 24 hours
[17] = intraperitoneal 10 mg/kg, 1 hour
[18] = intraperitoneal 10 mg/kg, 3 hours
[19] = intraperitoneal 10 mg/kg, 5 hours
[20] = intraperitoneal 10 mg/kg, 24 hours
[21] = intraperitoneal 30 mg/kg, 1 hour
[22] = intraperitoneal 30 mg/kg, 3 hours
[23] = intraperitoneal 30 mg/kg, 5 hours
[24] = intraperitoneal 30 mg/kg, 24 hours

`COc1cc2nc(N3CCN(C(=O)C4CCCO4)CC3)nc(N)c2cc1OC` (stereo not shown) [2[4-(Tetrahydro-2-Furoyl)Piperazinyl]-4-Amino-6,7-Dimethoxyquinazoline Hydrochloride] showed a solubility (physchem) of 590 mg/mL, an LD50 ([1]; injected 24 hours after formulation (B)) of 253 mg/kg and an LD50 ([1]; injected immediately after formulation (A)) of 259 mg/kg. For the same compound, the “toxicity in comparison to the compound of Formula I” value (mice (male and female)) was “significantly lower toxicity than the compound of Formula I”, the “duration of the effect (decrease in blood pressure)” value ([2]; intraperitoneal 30 mg./kg.) was “greater than 24 hours” and the “fall in blood pressure” value ([2]; oral, 3 and 10 mg./kg., up to approximately) was at most 40%.

For `COc1cc2nc(N3CCN(C(=O)c4ccco4)CC3)nc(N)c2cc1OC` [Formula I, 2-[4-(2-furoyl)-1-piperazine-1-yl]-4-amino-6,7-dimethoxyquinazoline, reference compound], the “fall in blood pressure in words” value ([3]; The Lancet, May 10, 1975) is listed as “profound fall in blood pressure”, the toxicity in words ([3]; The Lancet, May 10, 1975) is listed as “significant toxicity” and the “collapse with loss of consciousness” value ([3]; following use of the drug, The Lancet and British Medical Journal, June 28, 1975) is listed as “Sudden collapse with loss of consciousness for periods ranging from a few minutes to one hour”. The solubility in words [4] was “very low solubility”, the “Percent Change BP (blood pressure)” value [2, 5] was -20.8% and the “Percent Change HR (heart rate)” value [2, 5] was -2.5%. The “Percent Change BP (blood pressure)” value [2, 6] was -18.3%, the “Percent Change HR (heart rate)” value [2, 6] was -0.5% and the “Percent Change BP (blood pressure)” value [2, 7] was -13.8%. The “Percent Change HR (heart rate)” value [2, 7] was -12.0%, the “Percent Change BP (blood pressure)” value [2, 8] was -4.3% and the “Percent Change HR (heart rate)” value [2, 8] was -5.0%. The “Percent Change BP (blood pressure)” value [2, 9] was -20.0%, the “Percent Change HR (heart rate)” value [2, 9] was 2.8% and the “Percent Change BP (blood pressure)” value [2, 10] was -15.3%. For the same compound, the “Percent Change HR (heart rate)” value [2, 10] was 1.8%, the “Percent Change BP (blood pressure)” value [2, 11] was -13.5% and the “Percent Change HR (heart rate)” value [2, 11] was 10.5%. For the same compound, the “Percent Change BP (blood pressure)” value [2, 12] was 3.5%, the “Percent Change HR (heart rate)” value [2, 12] was 12.8% and the “Percent Change BP (blood pressure)” value [2, 13] was -45.0%. The “Percent Change HR (heart rate)” value [2, 13] was 0.3%, the “Percent Change BP (blood pressure)” value [2, 14] was -31.5% and the “Percent Change HR (heart rate)” value [2, 14] was -6.5%. For the same compound, the “Percent Change BP (blood pressure)” value [2, 15] was -26.3%, the “Percent Change HR (heart rate)” value [2, 15] was -17.0% and the “Percent Change BP (blood pressure)” value [2, 16] was -2.3%. For the same compound, the “Percent Change HR (heart rate)” value [2, 16] was -4.0%, the “Percent Change BP (blood pressure)” value [2, 17] was -41.0% and the “Percent Change HR (heart rate)” value [2, 17] was 5.8%. The “Percent Change BP (blood pressure)” value [2, 18] was -34.0%, the “Percent Change HR (heart rate)” value [2, 18] was 14.8% and the “Percent Change BP (blood pressure)” value [2, 19] was -27.0%. For the same compound, the “Percent Change HR (heart rate)” value [2, 19] was 7.3%, the “Percent Change BP (blood pressure)” value [2, 20] was -13.0% and the “Percent Change HR (heart rate)” value [2, 20] was -7.5%. The “Percent Change BP (blood pressure)” value [2, 21] was -43.3%, the “Percent Change HR (heart rate)” value [2, 21] was -1.8% and the “Percent Change BP (blood pressure)” value [2, 22] was -48.5%. The “Percent Change HR (heart rate)” value [2, 22] was 4.8%, the “Percent Change BP (blood pressure)” value [2, 23] was -55.5% and the “Percent Change HR (heart rate)” value [2, 23] was 3.5%. For the same compound, the “Percent Change BP (blood pressure)” value [2, 24] was -24.5%, the “Percent Change HR (heart rate)” value [2, 24] was -6.5% and the “Percent Change BP (blood pressure)” value ([2]; oral 0.03 mg/kg, 1 hour) was -4.5%. The “Percent Change HR (heart rate)” value ([2]; oral 0.03 mg/kg, 1 hour) was 4.8%, the “Percent Change BP (blood pressure)” value ([2]; oral 0.03 mg/kg, 3 hours) was -0.8% and the “Percent Change HR (heart rate)” value ([2]; oral 0.03 mg/kg, 3 hours) was -9.3%. For the same compound, the “Percent Change BP (blood pressure)” value ([2]; oral 0.03 mg/kg, 5 hours) was -11.5%, the “Percent Change HR (heart rate)” value ([2]; oral 0.03 mg/kg, 5 hours) was -9.8% and the “Percent Change BP (blood pressure)” value ([2]; oral 0.03 mg/kg, 24 hours) was 1.3%. For the same compound, the “Percent Change HR (heart rate)” value ([2]; oral 0.03 mg/kg, 24 hours) was -2.0%, the “Percent Change BP (blood pressure)” value ([2]; oral 0.1 mg/kg, 1 hour) was -9.8% and the “Percent Change HR (heart rate)” value ([2]; oral 0.1 mg/kg, 1 hour) was 13.5%. The “Percent Change BP (blood pressure)” value ([2]; oral 0.1 mg/kg, 3 hours) was -17.5%, the “Percent Change HR (heart rate)” value ([2]; oral 0.1 mg/kg, 3 hours) was 18.3% and the “Percent Change BP (blood pressure)” value ([2]; oral 0.1 mg/kg, 5 hours) was -22.8%. The “Percent Change HR (heart rate)” value ([2]; oral 0.1 mg/kg, 5 hours) was 1.5%, the “Percent Change BP (blood pressure)” value ([2]; oral 0.1 mg/kg, 24 hours) was -1.3% and the “Percent Change HR (heart rate)” value ([2]; oral 0.1 mg/kg, 24 hours) was 3.5%. The “Percent Change BP (blood pressure)” value ([2]; oral 0.3 mg/kg, 1 hour) was -32.8%, the “Percent Change HR (heart rate)” value ([2]; oral 0.3 mg/kg, 1 hour) was -5.5% and the “Percent Change BP (blood pressure)” value ([2]; oral 0.3 mg/kg, 3 hours) was -33.8%. The “Percent Change HR (heart rate)” value ([2]; oral 0.3 mg/kg, 3 hours) was -5.0%, the “Percent Change BP (blood pressure)” value ([2]; oral 0.3 mg/kg, 5 hours) was -30.0% and the “Percent Change HR (heart rate)” value ([2]; oral 0.3 mg/kg, 5 hours) was -13.8%. The “Percent Change BP (blood pressure)” value ([2]; oral 0.3 mg/kg, 24 hours) was -12.3%, the “Percent Change HR (heart rate)” value ([2]; oral 0.3 mg/kg, 24 hours) was 3.0% and the “Percent Change BP (blood pressure)” value ([2]; oral 1 mg/kg, 1 hour) was -31.8%. For the same compound, the “Percent Change HR (heart rate)” value ([2]; oral 1 mg/kg, 1 hour) was 2.0%, the “Percent Change BP (blood pressure)” value ([2]; oral 1 mg/kg, 3 hours) was -17.8% and the “Percent Change HR (heart rate)” value ([2]; oral 1 mg/kg, 3 hours) was 6.8%. The “Percent Change BP (blood pressure)” value ([2]; oral 1 mg/kg, 5 hours) was -19.5%, the “Percent Change HR (heart rate)” value ([2]; oral 1 mg/kg, 5 hours) was -1.0% and the “Percent Change BP (blood pressure)” value ([2]; oral 1 mg/kg, 24 hours) was -2.3%. The “Percent Change HR (heart rate)” value ([2]; oral 1 mg/kg, 24 hours) was 10.0%, the “Percent Change BP (blood pressure)” value ([2]; oral 3 mg/kg, 1 hour) was -19.3% and the “Percent Change HR (heart rate)” value ([2]; oral 3 mg/kg, 1 hour) was 0.5%. For the same compound, the “Percent Change BP (blood pressure)” value ([2]; oral 3 mg/kg, 3 hours) was -19.8%, the “Percent Change HR (heart rate)” value ([2]; oral 3 mg/kg, 3 hours) was 11.5% and the “Percent Change BP (blood pressure)” value ([2]; oral 3 mg/kg, 5 hours) was -20.5%. The “Percent Change HR (heart rate)” value ([2]; oral 3 mg/kg, 5 hours) was 1.5%, the “Percent Change BP (blood pressure)” value ([2]; oral 3 mg/kg, 24 hours) was 5.3% and the “Percent Change HR (heart rate)” value ([2]; oral 3 mg/kg, 24 hours) was 6.0%. The “Percent Change BP (blood pressure)” value ([2]; oral 10 mg/kg, 1 hour) was -23.8%, the “Percent Change HR (heart rate)” value ([2]; oral 10 mg/kg, 1 hour) was 3.0% and the “Percent Change BP (blood pressure)” value ([2]; oral 10 mg/kg, 3 hours) was -22.3%. The “Percent Change HR (heart rate)” value ([2]; oral 10 mg/kg, 3 hours) was 12.3%, the “Percent Change BP (blood pressure)” value ([2]; oral 10 mg/kg, 5 hours) was -22.0% and the “Percent Change HR (heart rate)” value ([2]; oral 10 mg/kg, 5 hours) was -0.8%. For the same compound, the “Percent Change BP (blood pressure)” value ([2]; oral 10 mg/kg, 24 hours) was -2.3%, the “Percent Change HR (heart rate)” value ([2]; oral 10 mg/kg, 24 hours) was 23.3% and the “Percent Change BP (blood pressure)” value ([2]; oral 30 mg/kg, 1 hour) was -34.0%. For the same compound, the “Percent Change HR (heart rate)” value ([2]; oral 30 mg/kg, 1 hour) was -3.8%, the “Percent Change BP (blood pressure)” value ([2]; oral 30 mg/kg, 3 hours) was -31.3% and the “Percent Change HR (heart rate)” value ([2]; oral 30 mg/kg, 3 hours) was -11.5%. The “Percent Change BP (blood pressure)” value ([2]; oral 30 mg/kg, 5 hours) was -29.3%, the “Percent Change HR (heart rate)” value ([2]; oral 30 mg/kg, 5 hours) was -14.8% and the “Percent Change BP (blood pressure)” value ([2]; oral 30 mg/kg, 24 hours) was -14.5%. The “Percent Change HR (heart rate)” value ([2]; oral 30 mg/kg, 24 hours) was -1.5%.
